In patent US7087627B1, “Combinations for the treatment of diseases involving angiogenesis” (Angiogene Pharmaceuticals Ltd., priority 1999, dated 2006):

Key:
SaS tumours = test: Induction of necrosis in SaS tumours; type: in vivo; settings: SaS tumour-bearing mice, tumours excised after 24 h, mean score 1-10 by area of necrosis
Experimental: Mice bearing either CaNT or SaS tumours were treated with the test compound and tumours excised after 24 h, fixed in formalin, embedded in paraffin, sectioned and stained with haematoxylin and eosin. Sections were scored based on area of necrosis as follows:
In this assay the effect of a given dose of either a vascular damaging agent or a nitric oxide synthase inhibitor administered alone can be compared with the effect of a combination of the two agents.

CaNT tumours = test: Tumour functional vascular volume measured by fluorescent dye Hoechst 33342; type: in vivo; settings: CaNT tumour-bearing mice; CA4P 25 mg/kg alone, intra peritoneal; 24 hours after treatment
Experimental: Activity Against Tumour Vasculature Measured by Fluorescent Dye.
Tumour functional vascular volume in CaNT tumour-bearing mice was measured using the fluorescent dye Hoechst 33342 according to the method of Smith et al (Brit J Cancer 57, 247–253, 1988). The fluorescent dye was dissolved in saline at 6.25 mg/ml and injected intravenously at 10 mg/kg 24 hours after intra peritoneal drug treatment. One minute later, animals were killed and tumours excised and frozen; 10 μm sections were cut at 3 different levels and observed under UV illumination using an Olympus microscope equipped with epifluorescence. Blood vessels were identified by their fluorescent outlines and vascular volume was quantified using a point scoring system based on that described by Chalkley, (J Natl Cancer Inst, 4, 47–53, 1943). All estimates were based on counting a minimum of 100 fields from sections cut at the 3 different levels.

Structure (SMILES)	Necrosis score ± SEM (n) (SaS tumours; AMP 10 mg/kg alone)	Vascular Volume % ± SEM (n) (CaNT tumours)	Necrosis score ± SEM (n) (SaS tumours; CA4P 500 mg/kg alone)
Cc1ccnc(N)c1 [AMP, 2-amino-4-methylpyridine]	1.0		
COc1ccc(/C=C\c2cc(OC)c(OC)c(OC)c2)cc1OP(=O)(O)O [CA4P, Combretastatin A4 phosphate]		1.03 ± 0.14 (4) %	1.7 ± 0.7
